These results are taken from US20260115250A1, “METHODS OF TREATING AGE-RELATED MACULAR DEGENERATION” (Character Biosciences, Inc., priority 2022, published 2026).

Test [1] is described as follows: DMPC solubility assay, 0.5 mM DMPC (turbidity reduction). The test is classed as biochemical. Put shortly: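 Peptides (100 μM final, or 3.16-100 μM for titrations) incubated with 0.5 mM DMPC in water for 15 minutes at room temperature. Turbidity read as absorbance at 405 nm; EC50 from non-linear regression, mean+SD over two runs.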
Test [2] concerns ARPE-19 cells. Nature of the test: ARPE-19 GAG-dependent cholesterol import (with or without heparin). In kind it is cell-based, human. The conditions noted are these: ARPE-19, 10 μM peptide. The procedure: ARPE-19 cells were seeded on 96-well plates at 25,000 cells per well and grown to confluence. A 2× solution of 500 μM DMPC and 50 μM BODIPY-Cholesterol with or without 100 µg/mL heparin was prepared in serum free DMEM: F12. Peptides were diluted to 20 μM in serum free DMEM: F12 (a 2× solution). Peptides were added to lipid solution in equal parts (60 μL each) and incubated for 1 hour at 37° C. ARPE-19 cells were serum starved in serum free DMEM: F12 for 1 hour at 37° C. Peptide: Lipid complexes (100 μL total volume per well) were transferred to ARPE-19 cells for 2 hours at 37° C. Cells were washed, fixed, and intracellular fluorescence was read on Promega GloMax at 475 nm excitation, 500-550 emission. Fluorescence values were background corrected from no treatment conditions. Data are presented ±SD for 2 runs.

Test [3] deals with HepG2 cells. Nature of the test: HepG2 GAG dependent cholesterol import (with or without heparin). The test is classed as cell-based. The conditions noted are these: HepG2, 10 μM peptide, with or without 100 μg/mL heparin. The procedure: HepG2 cells were seeded on 96-well plates at 10,000 cells per well and grown to confluence. A 2× solution of 500 μM DMPC and 50 μM BODIPY-Cholesterol with or without 100 μg/mL heparin was prepared in serum free EMEM. Peptides were diluted to 20 μM in serum-free EMEM (a 2× solution). Peptides were added to lipid solution in equal parts (60 μL each) and incubated for 1 hour at 37° C. HepG2 cells were serum starved in serum-free EMEM for 1 hour at 37° C. Peptide: Lipid complexes (100 μL total volume per well) were transferred to HepG2 cells for 2 hours at 37° C. Cells were washed, fixed, and intracellular fluorescence was read on Promega GloMax at 475 nm excitation, 500-550 emission. Fluorescence values were background corrected from no treatment conditions. Data are presented ±SD for 2 runs.

Peptide text beside a SMILES is read from it.

For the molecule `CC[C@H](C)[C@H](NC(=O)CNC(=O)[C@H](CO)NC(=O)[C@@H](NC(=O)[C@H](Cc1c[nH]c2ccccc12)NC(=O)[C@H](Cc1c[nH]cn1)NC(=O)[C@H](CCC(=O)O)NC(=O)[C@H](Cc1ccccc1)NC(=O)[C@H](CCCNC(=N)N)NC(=O)[C@H](CC(C)C)NC(=O)[C@H](CC(C)C)NC(=O)[C@H](CCCNC(=N)N)NC(=O)[C@H](CCCCN)NC(=O)[C@H](CCCNC(=N)N)NC(=O)[C@H](CC(C)C)NC(=O)[C@H](CCCCN)NC(=O)[C@H](CCCNC(=N)N)NC(=O)[C@H](CC(C)C)NC(=O)[C@@H](N)Cc1c[nH]cn1)[C@@H](C)CC)C(=O)N[C@@H](Cc1ccc(O)cc1)C(=O)N[C@@H](CO)C(=O)N[C@@H](CCC(=O)O)C(=O)N[C@@H](CS)C(=O)N[C@@H](CCCCN)C(=O)N[C@@H](Cc1c[nH]cn1)C(=O)N[C@@H](CC(C)C)C(=O)N[C@H](C(=O)N[C@@H](CCC(N)=O)C(=O)N[C@@H](CCC(=O)O)C(=O)O)[C@@H](C)CC` [T-025] (H-HLRKLRKRLLRFEHWISGIYSECKHLIQE-OH; N-terminus and C-terminus assumed), in test [1] (3.16-100 μM peptides, 15 minutes), the midpoint of the response, the EC50, lay at 25.3 µM. Besides, in test [1] (FIGS. 2A-2D and 3A-3C), the DMPC solubilizing activity result was “significant activity”. Moreover, the “GAG dependence of cholesterol import” value in test [2] and in test [3] was “rely on GAG binding for cholesterol import activity” each time.
